The target in one data set is T1, PARP1 (Homo sapiens, UniProt P09874).
T1 construct: purchased BPS 80501
Nature of the data set: PARP1 enzyme assay (histone-coated plate, chemiluminescence). The note with it: PARP1 0.02 nM, DNA 0.8 nM, NAD+ 3.5 µM; read-out: PARP-1 IC50. The class given is biochemical.

Data set [1] concerns CD34+ hematopoietic stem and progenitor cells (hmPB34-P-SC). Nature of the data set: Hematological toxicity assay (CellTiter-Glo 2.0). The class given is cell-based. The settings on record: 120 h; 5 days of culture. How it is done:
The next day, the cells were resuspended and seeded in a 96-well plate at a concentration of 1000 cells/well, and meanwhile, different concentrations of the drug were added for treatment, with 3 replicate wells set for each concentration. After 5 days of culture, the number of viable cells in each well was determined using a CellTiter-Glo 2.0 kit, followed by detection by a microplate reader.

In data set [2] the test system is BRCA-mutated MDA-MB-436 cells. Nature of the data set: Anti-proliferative activity against cells (CCK8): MDA-MB-436. In kind it is cell-based. The settings on record: Homo sapiens, 72 h + 96 h culture.
The test system of data set [3] is BRCA wild-type DLD-1 cells. Nature of the data set: Anti-proliferative activity against cells (CCK8): DLD-1. The note with it: Homo sapiens, 72 h + 96 h culture. The class given is cell-based. Put shortly: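 DLD-1 cells (1000/well) in RPMI-1640 with 10% FBS, treated 24 h after plating with PARPi at 0, 1 or 10 µM final. Cultured 72 h, medium exchanged with re-added PARPi, then a further 96 h; read-out by CCK8.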

Data set [4] deals with MDA-MB-436 breast cancer subcutaneous xenograft tumor model. In words: In vivo pharmacodynamic study of compound 2 in MDA-MB-436 subcutaneous xenograft tumor model. The note with it: 100 mg/kg, oral once daily, 30 days.
Method: Experimental process: Twenty-four female NOD/SCID mice were used in the experiment. […] All groups were subjected to oral administration once daily. Meanwhile, the mice were weighed every 2 days, and the length and width of the tumors were measured with a vernier caliper. After 30 days of administration, the tumor-bearing mice were anesthetized and sacrificed. The tumor tissues were dissected, weighed, and photographed, and the tumor growth inhibition rates were calculated.
The test system is the same in data set [5]. In words: In vivo pharmacodynamic study of compound 53 in MDA-MB-436 subcutaneous xenograft tumor model. Also noted: species or system NOD/SCID mice. The note with it: oral once daily, 30 days; for inhibitory effects on tumor growth (in words): compared to blank control.
Data set [6] is described as follows: Pharmacokinetic evaluation in Balb/c mice. The settings on record: 1mg/kg, PO; for AUC(0-t) / Cmax / half-life: male, mouse, plasma. In kind it is in vivo. How it is done:
Experimental objective: To understand the pharmacokinetic profiles of the compounds. Experimental basis: Technical guidelines for non-clinical pharmacokinetic studies of chemical drugs, 2014.
Experimental scheme: The pharmacokinetic profiles of the compounds were investigated by intravenous administration (1 mg·kg^-1) and intragastric administration (1 mg·kg^-1) in Balb/c mice.
Sample preparation: About 0.2 mg of the compound was weighed out and dissolved in 10 µL of DMSO, and then a sodium chloride solution for injection was added to prepare a 0.1 mg·mL^-1 compound solution for later administration.
Three of the mice were subjected to intravenous administration (IV) at 1 mg·kg^-1, while the other three were subjected to intragastric administration (PO) at 1 mg·kg^-1. About 0.05 mL of blood was collected at 5 min, 15 min, 30 min, 1 h, 2 h, 4 h, 6 h, 8 h, 10 h, 24 h, and 48 h after administration. The collected blood was centrifuged at 3500 rpm for 15 min. The supernatant plasma was then collected and cryopreserved at -40 °C for later analysis. The plasma concentration was quantitatively analyzed using the LC-MS/MS method, and pharmacokinetic parameters such as […] (Cmax), area under plasma concentration-time curve (AUC(0-t)), half-life (T1/2), clearance rate (CL), tissue distribution (Vdss), and bioavailability (F) were calculated. Table 18. Results of pharmacokinetic test of compounds in Balb/c mice

A short description of data set [7]: Cerebrospinal fluid and plasma distribution in vivo. The settings on record: rat, male rats, intravenous 5 mg/kg, n = 1. Here is the method:
Experimental procedures: The compound was weighed out, a small amount of DMSO was added, and then a sodium chloride solution for injection was added to prepare a 5 mg·mL^-1 compound solution for later administration. […] 10 µL of the plasma and 10 µL of the cerebrospinal fluid were each added to a centrifuge tube, and 40 µL of acetonitrile containing 20 ng·mL^-1 internal standard SAHA was added for precipitation. […] The supernatant was collected and transferred to a sample vial for later analysis. Range of standard curve: 1-1000 ng·mL^-1.

Data set [8] concerns the target T2, hERG potassium ion channel (Homo sapiens, UniProt Q12809).
T2 construct: expressed in transfected cells; host or cells: CHO cells
Nature of the data set: Inhibition of hERG potassium ion channel (Qpatch, CHO cells stably expressing hERG). The class given is cell-based. Here is the method: Cell culture and treatment: CHO cells stably expressing hERG were cultured in a cell culture flask and incubated in an incubator with 5% CO2 at 37 °C. When the cell density reached 60%-80%, the cell culture medium was removed by pipetting. The cells were washed once with PBS, and then Detachin was added for detachment. After complete detachment, a culture medium was added for neutralization. The cells were then centrifuged, and the supernatant was removed by pipetting. A culture medium was further added for resuspension, and the cell density was adjusted to (2-5) × 10^6 cells/mL for later use.
Compound preparation: The compound stock solution was diluted with 100% DMSO. Specifically, 10 µL of the compound stock solution was added to 20 µL of DMSO, followed by a 3-fold serial dilution to obtain 6 concentrations. 4 µL of each of the 6 compound solutions at different concentrations was taken and added to 396 µL of an extracellular fluid, resulting in a 100-fold dilution to obtain 6 intermediate concentrations. Then, 80 µL of each of the 6 intermediate-concentration compound solutions was taken and added to 320 µL of an extracellular fluid, resulting in a 5-fold dilution to achieve the final test concentrations. The highest test concentration was 40 µM. […] DMSO at this concentration has no effect on the hERG potassium channel. During the compound preparation, the entire dilution process was completed by a Bravo instrument.
Electrophysiological recording process: The single-cell high-impedance sealing and whole-cell mode formation processes were all completed automatically by a Qpatch instrument. After achieving the whole-cell recording mode, the cells were clamped at -80 mV. Before a 5-second +40 mV depolarizing stimulus was applied, a 50-millisecond -50 mV prepulse voltage was first applied. The potential was then repolarized to -50 mV and held for 5 s, and finally returned to -80 mV. This voltage stimulation was applied every 15 s. After 2 min of recording, the extracellular fluid was administered, followed by recording for 5 min. Then, the compound administration process began, starting from the lowest test compound concentration. Each test concentration was applied for 2.5 min. After all the concentrations were applied consecutively, the positive control compound, 3 µM Cisapride, was administered. At least 3 cells (n ≥ 3) were tested for each concentration.
Data processing: Data analysis and processing were performed using GraphPad Prism 5.0 and Excel software. The IC50 of the compound was calculated using GraphPad Prism 5 software by equation fitting as follows: Y = Bottom + (Top−Bottom)/(1+10^(∧)((LogIC50−X)*HillSLope)) [formula] where X is the Log value of the test concentration of the test sample, Y is the inhibition percentage at the corresponding concentration, and Bottom and Top are the minimum and maximum inhibition percentages, respectively. Table 17. Results of inhibition of hERG potassium ion channel by compounds

For the next data set, the target named is T3, PARP6 (Homo sapiens, UniProt Q2NL67).
T3 construct: purchased BPS 80556
T3 sequence (Q2NL67 whole entry): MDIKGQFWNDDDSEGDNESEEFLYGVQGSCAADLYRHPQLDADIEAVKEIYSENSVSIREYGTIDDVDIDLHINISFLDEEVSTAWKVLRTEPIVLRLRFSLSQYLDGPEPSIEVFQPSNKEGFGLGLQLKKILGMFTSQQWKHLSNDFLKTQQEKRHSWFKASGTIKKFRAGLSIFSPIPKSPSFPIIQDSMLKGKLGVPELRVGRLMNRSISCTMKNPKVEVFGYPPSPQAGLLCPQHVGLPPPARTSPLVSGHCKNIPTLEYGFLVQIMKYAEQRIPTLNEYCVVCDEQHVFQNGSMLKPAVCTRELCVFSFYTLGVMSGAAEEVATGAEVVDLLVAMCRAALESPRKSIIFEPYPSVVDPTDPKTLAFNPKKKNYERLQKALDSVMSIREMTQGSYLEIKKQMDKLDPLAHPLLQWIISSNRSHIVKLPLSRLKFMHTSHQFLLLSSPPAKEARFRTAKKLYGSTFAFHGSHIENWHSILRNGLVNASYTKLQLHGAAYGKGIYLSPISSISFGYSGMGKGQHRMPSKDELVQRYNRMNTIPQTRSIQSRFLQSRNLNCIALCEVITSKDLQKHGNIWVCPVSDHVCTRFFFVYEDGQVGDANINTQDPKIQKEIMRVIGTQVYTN
In words: Assay for selectivity for PARP6 (ELISA, chemiluminescence). In kind it is biochemical. How it is done: Main instruments and reagents for PARP6 assay
Experimental procedures: The enzymatic activity of PARP6 was assayed by the ELISA method. […] The IC50 values of the compounds were calculated using the nonlinear fitting formula in GraphPad software.
Background: An ELISA detects its analyte on a solid surface through an enzyme-linked reagent.

Where [9] appears, read: cerebrospinal fluid, read-out: Cerebrospinal fluid.

Where two headings read alike, the source gives them in different places. Where only a bound is given, the exact number is not on record here.

As usually defined, the IC50 is the point on the concentration scale where inhibition reaches its midpoint. One may read the AUC(0-t) as exposure summed from dosing to a finite time, without extrapolation to infinity. Low readings indicate low exposure, high ones high exposure. Usually Cmax stands for the peak of the concentration-time curve. As usually defined, the half-life is the time needed for the level to fall by half in the phase considered. A high value points to slow loss. In general, inhibition refers to the relative decrease from the control value, in per cent.

T1 sequence (P09874 whole entry): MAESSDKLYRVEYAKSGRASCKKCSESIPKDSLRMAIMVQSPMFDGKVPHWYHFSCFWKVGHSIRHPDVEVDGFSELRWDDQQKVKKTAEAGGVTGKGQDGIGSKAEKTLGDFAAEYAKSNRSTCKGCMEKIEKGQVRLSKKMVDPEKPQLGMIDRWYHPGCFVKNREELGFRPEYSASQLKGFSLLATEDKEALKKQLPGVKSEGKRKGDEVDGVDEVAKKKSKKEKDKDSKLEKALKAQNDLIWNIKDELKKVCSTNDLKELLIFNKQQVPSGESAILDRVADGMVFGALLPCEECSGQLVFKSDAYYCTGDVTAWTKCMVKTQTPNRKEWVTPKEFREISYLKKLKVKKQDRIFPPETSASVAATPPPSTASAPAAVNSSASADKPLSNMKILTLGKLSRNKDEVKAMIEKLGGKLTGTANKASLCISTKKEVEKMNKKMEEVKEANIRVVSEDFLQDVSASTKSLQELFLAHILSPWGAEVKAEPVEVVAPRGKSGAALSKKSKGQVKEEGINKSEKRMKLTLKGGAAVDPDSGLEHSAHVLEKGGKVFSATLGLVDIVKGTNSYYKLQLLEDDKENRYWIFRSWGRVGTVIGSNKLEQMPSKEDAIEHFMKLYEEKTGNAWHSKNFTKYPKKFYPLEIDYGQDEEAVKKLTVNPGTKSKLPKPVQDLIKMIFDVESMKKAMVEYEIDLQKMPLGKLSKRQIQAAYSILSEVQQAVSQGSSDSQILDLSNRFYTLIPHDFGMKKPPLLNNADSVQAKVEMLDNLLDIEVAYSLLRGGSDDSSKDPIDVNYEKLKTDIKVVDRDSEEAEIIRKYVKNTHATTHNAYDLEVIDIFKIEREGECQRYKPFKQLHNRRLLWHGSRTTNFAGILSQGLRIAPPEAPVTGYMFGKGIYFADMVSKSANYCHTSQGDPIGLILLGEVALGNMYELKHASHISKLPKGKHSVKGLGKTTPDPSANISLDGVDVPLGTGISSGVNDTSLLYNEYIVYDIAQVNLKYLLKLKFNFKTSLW
T2 sequence (Q12809 whole entry): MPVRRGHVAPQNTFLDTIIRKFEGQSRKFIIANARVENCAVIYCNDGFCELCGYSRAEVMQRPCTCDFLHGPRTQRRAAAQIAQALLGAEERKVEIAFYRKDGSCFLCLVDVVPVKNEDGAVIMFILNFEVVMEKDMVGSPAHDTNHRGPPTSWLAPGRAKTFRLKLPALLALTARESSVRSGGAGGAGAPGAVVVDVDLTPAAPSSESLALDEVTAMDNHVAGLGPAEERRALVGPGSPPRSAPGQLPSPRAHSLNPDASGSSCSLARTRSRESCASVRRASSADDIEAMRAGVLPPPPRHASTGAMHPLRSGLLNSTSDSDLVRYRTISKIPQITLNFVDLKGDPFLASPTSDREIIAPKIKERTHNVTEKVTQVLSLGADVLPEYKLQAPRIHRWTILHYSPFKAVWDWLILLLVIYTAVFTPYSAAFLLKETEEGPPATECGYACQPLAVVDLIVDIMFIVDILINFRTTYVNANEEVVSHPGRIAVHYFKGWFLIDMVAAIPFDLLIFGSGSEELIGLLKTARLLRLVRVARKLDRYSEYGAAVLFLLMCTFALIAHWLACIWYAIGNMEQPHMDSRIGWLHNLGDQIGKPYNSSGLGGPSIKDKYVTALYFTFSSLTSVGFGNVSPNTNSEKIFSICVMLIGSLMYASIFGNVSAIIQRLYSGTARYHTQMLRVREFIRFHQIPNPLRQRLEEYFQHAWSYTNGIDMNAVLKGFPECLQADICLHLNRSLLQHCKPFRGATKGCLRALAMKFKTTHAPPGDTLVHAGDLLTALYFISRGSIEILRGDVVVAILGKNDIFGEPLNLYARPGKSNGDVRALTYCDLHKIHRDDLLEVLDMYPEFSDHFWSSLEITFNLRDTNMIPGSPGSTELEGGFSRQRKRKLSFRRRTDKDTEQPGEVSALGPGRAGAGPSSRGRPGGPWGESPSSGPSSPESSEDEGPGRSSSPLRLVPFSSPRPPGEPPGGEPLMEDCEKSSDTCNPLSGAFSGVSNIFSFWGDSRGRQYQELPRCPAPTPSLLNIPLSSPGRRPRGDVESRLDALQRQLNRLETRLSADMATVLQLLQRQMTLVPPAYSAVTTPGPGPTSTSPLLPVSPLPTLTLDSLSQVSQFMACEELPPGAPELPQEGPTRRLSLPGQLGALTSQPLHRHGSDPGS

With `CNC(=O)c1ccc(N2CCN(C[C@H]3CCc4nc(C)c(=O)[nH]c4C3)CC2)c(Cl)n1` [Example 106, (S)-6-Chloro-N-methyl-5-(4-((2-methyl-3-oxo-3,4,5,6,7,8-hexahydroquinoxalin-6-yl)methyl)piperazin-1-yl)picolinamide], the IC50 was at most 50 nM on PARP1, above 1000 nM in data set [1], 6.5 nM in data set [2] and above 1000 nM in data set [3].
`O=C(c1cc(Cc2n[nH]c(=O)c3ccccc23)ccc1F)N1CCN(C(=O)C2CC2)CC1` [Olaparib, reference compound]: in [1], the IC50 was 200 nM. The “tumor growth inhibition rate” value in data set [4] turned out to be 65.81%.
As for `CNC(=O)c1ccc(N2CCN(Cc3ccc4nc(C)c(=O)[nH]c4c3F)CC2)c(F)n1` [AZD9574, reference compound], the “inhibitory effects on tumor growth (in words)” value in [5] (3 mg/kg) was “significant inhibitory effects on tumor growth”.
As for `[2H]C([2H])([C@H]1CCc2nc(C)c(=O)[nH]c2C1)N1CCN(c2ccc(C(=O)NC)nc2Cl)CC1` [Example 85, (S)-6-Chloro-N-methyl-5-(4-((2-methyl-3-oxo-3,4,5,6,7,8-hexahydroquinoxalin-6-yl)methyl-d2)piperazin-1-yl)picolinamide], the half-maximal inhibitory concentration (IC50) at PARP1 is at most 50 nM; in data set [1] it was above 1000 nM; in [2], 7 nM; in [3], above 1000 nM.
For the compound `CCc1nc2c([nH]c1=O)C[C@@H](CN1CC=C(c3ccc(C(=O)NC)nc3F)CC1)CC2` [Example 53, (S)-1'-((2-Ethyl-3-oxo-3,4,5,6,7,8-hexahydroquinoxalin-6-yl)methyl)-2-fluoro-N-methyl-1',2', 3',6'-tetrahydro-[3,4'-bipyridine]-6-carboxamide], in data set [5] (1 mg/kg), the “anti-tumor effect compared with the AZD9574 (3 mg/kg) group (in words)” value is given as “superior” and the “inhibitory effects on tumor growth (in words)” value is reported as “significant inhibitory effects on tumor growth”. Besides, the IC50 on PARP1 is at most 50 nM. Also, in data set [6], the CL is listed as 0.04 L/h/kg, the Vdss was found to be 0.42 L/kg, the AUC(0-t) was determined as 22300 ng·h/mL and the peak level (Cmax) was 3650 ng/mL. Moreover, the half-life in data set [6] was 426 min. Further, in [2], the IC50 turned out to be 1.5 nM. For the same compound, the half-maximal inhibitory concentration (IC50) in [3] was above 1000 nM.
Regarding `Cc1cc2c([nH]c1=O)CC(CN1CCN(c3ccc(C(=O)Nc4cnn(C)c4)nc3F)CC1)OC2` (stereo not drawn) [Example 77, 6-Fluoro-N-(1-methyl-1H-pyrazol-4-yl)-5-(4-((3-methyl-2-oxo-1,5,7,8-tetrahydro-2H-pyrano[4,3-b]pyridin-7-yl)methyl)piperazin-1-yl)picolinamide], the IC50 was at most 50 nM at PARP1, 307 nM in data set [1], 3.9 nM in [2] and above 1000 nM in [3].
Consider `CNC(=O)c1ccc(C2=CCN(CC3Cc4[nH]c(=O)c(C5CC5)cc4CO3)CC2)c(F)n1` (stereo not drawn) [Example 51, 1'-((3-Cyclopropyl-2-oxo-1,5,7,8-tetrahydro-2H-pyrano[4,3-b]pyridin-7-yl)methyl)-2-fluoro-N-methyl-1',2',3',6'-tetrahydro-[3,4'-bipyridine]-6-carboxamide], for which, at PARP1, the IC50 fell in the range of 50 to 500 nM. For the same compound, in data set [7] (setting [9]), the concentration at 0.25 h is 53 ng/g and the concentration at 2 h stood at 25 ng/g. For the same compound, in data set [7] (plasma, read-out: Plasma), the concentration at 0.25 h is 41900 ng/mL and the concentration at 2 h amounted to 21700 ng/mL. This compound showed a concentration for half-maximal inhibition (IC50) in [1] above 1000 nM. In data set [6], this compound showed a CL of 0.01 L/h/kg, a Vdss of 0.04 L/kg, an exposure AUC(0-t) of 96800 ng·h/mL and a peak concentration (Cmax) of 6280 ng/mL. The same compound gave a half-life in data set [6] of 953 min. In addition, in [2], the IC50 was 160 nM. In addition, in data set [3], the IC50 is above 1000 nM.
With `C=Cc1cc2c([nH]c1=O)CC(CN1CCN(c3ccc(C(=O)NC)nc3F)CC1)OC2` (stereo not drawn) [Example 67, 6-Fluoro-N-methyl-5-(4-((2-oxo-3-vinyl-1,5,7,8-tetrahydro-2H-pyrano[4,3-b]pyridin-7-yl)methyl)piperazin-1-yl)picolinamide], the values for the IC50 (at PARP1; in [1]; in [3]) were at most 50 nM, above 1000 nM and above 1000 nM, respectively. The “inhibitory effects on the hERG potassium ion channel (in words)” value in [8] (conclusion of Table 17) is “Conclusion: Compounds 2, 6, 45, 62, 67, 74, 83, 87, etc., of the present disclosure exhibited relatively weak inhibitory effects on the hERG potassium ion channel”. Also, in data set [8] (human, 20 µM, CHO cells stably expressing hERG, read-out: Inhibition rate at 20 µM), the inhibition at 2.5 min, 20 µM is 4.18%.
For `CCc1cc2ncc(CN3CCN(c4ccc(C(=O)NC)nc4)CC3)cc2[nH]c1=O` [AZD5305, reference compound], the IC50 at PARP6 is 8.19 µM.
On to `Cc1nc2c([nH]c1=O)C[C@@H](CN1CCN(c3ccc(C(=O)NC4CC4)nc3F)CC1)CC2` [Example 81, (S)-N-Cyclopropyl-6-fluoro-5-(4-((2-methyl-3-oxo-3,4,5,6,7,8-hexahydroquinoxalin-6-yl)methyl)piperazin-1-yl)picolinamide], for which the 50% inhibitory concentration (IC50) on PARP1 is at most 50 nM; in data set [1], above 1000 nM; in data set [2], 4.1 nM; in [3] it was above 1000 nM.

Source of the values: patent EP4768487A1, “FUSED LACTAM RING COMPOUND AND USE THEREOF” (Chengdu Zenitar Biomedical Technology Co., Ltd., priority 2023, dated 2025).
